{
  "source": "patent US20050249795A1",
  "about": "“Gemcitabine compositions for better drug delivery” (NEOPHARM, INC., priority 2002, published 2005)",
  "origin": "cited, not measured here",
  "key": {"[1]": {"tested_on": "Lewis lung murine xenograft"}, "[2]": {"tested_on": "LX-1 human lung xenografts", "conditions": "in vivo, LX-1 human lung xenograft"}, "[3]": {"tested_on": "CALU-6 human lung xenografts", "conditions": "in vivo, CALU-6 human lung xenograft"}, "NCI-H460 xenografts": {"tested_on": "NCI-H460 xenografts", "conditions": "in vivo, NCI-H460 xenograft"}, "NCI-H520 xenografts": {"tested_on": "NCI-H520 xenografts", "conditions": "in vivo, NCI-H520 xenograft"}, "[4]": {"tested_on": "CEM T lymphoblastoid cells"}, "[5]": {"conditions": "in patients"}},
  "note": "Counter-ions that a name gives are not always drawn.",
  "data": [
    {"smiles": "Nc1ccn([C@@H]2O[C@H](CO)[C@@H](O)C2(F)F)c(=O)n1", "note": "[Gemcitabine]", "values": [
      {"measurement": "interaction with cisplatin", "setting": "[1]", "value": "synergistic"},
      {"measurement": "activity in combination with cisplatin", "setting": "[2]", "value": "showed activity"},
      {"measurement": "activity in combination with cisplatin", "setting": "[3]", "value": "showed activity"},
      {"measurement": "activity with cisplatin in vitro", "value": "dose-dependent synergistic activity"},
      {"measurement": "activity in combination with cisplatin", "setting": "NCI-H460 xenografts", "value": "minimal activity"},
      {"measurement": "activity in combination with cisplatin", "setting": "NCI-H520 xenografts", "value": "minimal activity"},
      {"measurement": "internucleosomal DNA fragmentation", "setting": "[4]", "value": "induces internucleosomal DNA fragmentation"}
    ]},
    {"smiles": "Nc1ccn([C@@H]2O[C@H](CO)[C@@H](O)C2(F)F)c(=O)n1", "note": "[Gemcitabine HCL, gemcitabine hydrochloride]", "values": [
      {"measurement": "half-life", "setting": "[5]", "value": "very short half-life"}
    ]}
  ]
}
